Reference: ChEMBL document CHEMBL1138436, “Biological activity and chemistry of taxoids from the Japanese yew, Taxus cuspidata” (J Nat Prod, 2004)
≈ marks a conversion by molar mass, not a printed value.

Key:
[1] = tested on: KB; assay: Cytotoxicity against human KB cells; type: functional, cell-based
[2] = tested on: MCF7; assay: Growth inhibition of human MCF7 cells; type: functional
[3] = tested on: DMS-114; assay: Growth inhibition of human DMS114 cells; type: functional; settings: for CC50: read-out: LC50 (the source's name)
[4] = Growth inhibition of human RXF631L cells; type: functional; settings: for TGI: RXF 631
[5] = tested on: SNB-78; assay: Growth inhibition of human SNB78 cells; type: functional
[6] = tested on: OVCAR-8; assay: Growth inhibition of human OVCAR8 cells; type: functional
[7] = Growth inhibition of human BSY1 cells; type: functional
[8] = Growth inhibition of human HBC4 cells; type: functional; settings: for CC50: read-out: LC50 (the source's name)
[9] = tested on: SNB-75; assay: Growth inhibition of human SNB75 cells; type: functional
[10] = tested on: NCI-H226; assay: Growth inhibition of human NCI-H226 cells; type: functional
[11] = tested on: NCI-H23; assay: Growth inhibition of human NCI-H23 cells; type: functional
[12] = tested on: NCI-H460; assay: Growth inhibition of human NCI-H460 cells; type: functional
[13] = read-out: LC50 (the source's name)
[14] = read-out: pLC50 (the source's name) (converted)
[15] = RXF 631, read-out: LC50 (the source's name)
[16] = RXF 631, read-out: pGI50 (converted)
[17] = RXF 631, read-out: pLC50 (the source's name) (converted)
[18] = BSY-1, read-out: LC50 (the source's name)
[19] = BSY-1, read-out: pGI50 (converted)
[20] = BSY-1, read-out: pLC50 (the source's name) (converted)
[21] = BSY-1, read-out: pTGI (converted)

CC(=O)O[C@H]1C[C@H]2OC[C@@]2(OC(C)=O)[C@H]2[C@H](OC(=O)c3ccccc3)[C@]3(O)C[C@H](O)C(C)=C([C@@H](O)[C@H](O)[C@]12C)C3(C)C [TAXUSPINE E]
IC50 [1]: 0.08 µg/mL (≈ 0.136 µM) | GI50 ([2]; read-out: GI50): 24 µM | CC50 [2, 13]: > 100 µM | TGI ([2]; read-out: TGI): 93 µM | GI50 ([2]; read-out: pGI50 (converted)): 24 µM | CC50 [2, 14]: 100 µM | TGI ([2]; read-out: pTGI (converted)): 93.3 µM | GI50 ([3]; read-out: GI50): 10 µM | CC50 [3]: > 100 µM | TGI ([3]; read-out: TGI): 57 µM | GI50 ([3]; read-out: pGI50 (converted)): 10 µM | TGI ([3]; read-out: pTGI (converted)): 57.5 µM | TGI [4]: > 100 µM | GI50 ([4]; RXF 631, read-out: GI50): 25 µM | CC50 [4, 15]: 5100 µM | GI50 [4, 16]: 24.5 µM | CC50 [4, 17]: 100 µM | GI50 ([5]; read-out: GI50): 50 µM | CC50 [5, 13]: > 100 µM | TGI ([5]; read-out: TGI): > 100 µM | GI50 ([5]; read-out: pGI50 (converted)): 50.1 µM | CC50 [5, 14]: 100 µM | TGI ([5]; read-out: pTGI (converted)): 100 µM | GI50 ([6]; read-out: GI50): 37 µM | CC50 [6, 13]: > 100 µM | TGI ([6]; read-out: TGI): 100 µM | GI50 ([6]; read-out: pGI50 (converted)): 37.2 µM | CC50 [6, 14]: 100 µM | TGI ([6]; read-out: pTGI (converted)): 100 µM | GI50 ([7]; BSY-1, read-out: GI50): 30 µM | CC50 [7, 18]: > 100 µM | TGI ([7]; BSY-1, read-out: TGI): > 100 µM | GI50 [7, 19]: 30.2 µM | CC50 [7, 20]: 100 µM | TGI [7, 21]: 100 µM | GI50 ([8]; read-out: GI50): 72 µM | CC50 [8]: > 100 µM | TGI ([8]; read-out: TGI): > 100 µM | GI50 ([8]; read-out: pGI50 (converted)): 72.4 µM | TGI ([8]; read-out: pTGI (converted)): 100 µM | GI50 ([9]; read-out: GI50): 9 µM | CC50 [9, 13]: 100 µM | TGI ([9]; read-out: TGI): 55 µM | GI50 ([9]; read-out: pGI50 (converted)): 8.91 µM | CC50 [9, 14]: 100 µM | TGI ([9]; read-out: pTGI (converted)): 55 µM | GI50 ([10]; read-out: GI50): 32 µM | CC50 [10, 13]: > 100 µM | TGI ([10]; read-out: TGI): > 100 µM | GI50 ([10]; read-out: pGI50 (converted)): 32.4 µM | CC50 [10, 14]: 100 µM | TGI ([10]; read-out: pTGI (converted)): 100 µM | GI50 ([11]; read-out: GI50): 23 µM | CC50 [11, 13]: 100 µM | TGI ([11]; read-out: TGI): 69 µM | GI50 ([11]; read-out: pGI50 (converted)): 22.9 µM | CC50 [11, 14]: 100 µM | TGI ([11]; read-out: pTGI (converted)): 69.2 µM | GI50 ([12]; read-out: GI50): 36 µM | TGI ([12]; read-out: TGI): > 100 µM | GI50 ([12]; read-out: pGI50 (converted)): 35.5 µM | TGI ([12]; read-out: pTGI (converted)): 100 µM

C=C1[C@@H](OC(=O)/C=C/c2ccccc2)C[C@H](OC(C)=O)[C@]2(C)[C@@H]1C[C@]1(C(C)(C)O)C[C@H](OC(C)=O)C(C)=C1[C@@H](OC(=O)c1ccccc1)[C@@H]2OC(C)=O [TAXUSPINE A]
GI50 ([2]; read-out: GI50): 9.3 µM | CC50 [2, 13]: > 100 µM | TGI ([2]; read-out: TGI): > 100 µM | GI50 ([2]; read-out: pGI50 (converted)): 9.33 µM | CC50 [2, 14]: 100 µM | TGI ([2]; read-out: pTGI (converted)): 100 µM | GI50 ([3]; read-out: GI50): 7.8 µM | CC50 [3]: > 100 µM | TGI ([3]; read-out: TGI): > 100 µM | GI50 ([3]; read-out: pGI50 (converted)): 7.76 µM | TGI [4]: > 100 µM | GI50 ([4]; RXF 631, read-out: GI50): 100 µM | CC50 [4, 15]: > 100 µM | GI50 [4, 16]: 100 µM | CC50 [4, 17]: 100 µM | GI50 ([5]; read-out: GI50): 3.2 µM | CC50 [5, 13]: > 100 µM | TGI ([5]; read-out: TGI): > 100 µM | GI50 ([5]; read-out: pGI50 (converted)): 3.16 µM | CC50 [5, 14]: 100 µM | TGI ([5]; read-out: pTGI (converted)): 100 µM | GI50 ([6]; read-out: GI50): 100 µM | CC50 [6, 13]: > 100 µM | TGI ([6]; read-out: TGI): > 100 µM | GI50 ([6]; read-out: pGI50 (converted)): 100 µM | CC50 [6, 14]: 100 µM | TGI ([6]; read-out: pTGI (converted)): 100 µM | GI50 ([7]; BSY-1, read-out: GI50): 6.9 µM | CC50 [7, 18]: > 100 µM | TGI ([7]; BSY-1, read-out: TGI): 82 µM | GI50 [7, 19]: 6.92 µM | CC50 [7, 20]: 100 µM | TGI [7, 21]: 87.1 µM | GI50 ([8]; read-out: GI50): 100 µM | CC50 [8]: > 100 µM | TGI ([8]; read-out: TGI): > 100 µM | GI50 ([8]; read-out: pGI50 (converted)): 72.4 µM | TGI ([8]; read-out: pTGI (converted)): 100 µM | GI50 ([9]; read-out: GI50): 7.3 µM | CC50 [9, 13]: > 100 µM | TGI ([9]; read-out: TGI): 68 µM | GI50 ([9]; read-out: pGI50 (converted)): 7.24 µM | CC50 [9, 14]: 100 µM | TGI ([9]; read-out: pTGI (converted)): 67.6 µM | GI50 ([10]; read-out: GI50): 21 µM | CC50 [10, 13]: > 100 µM | TGI ([10]; read-out: TGI): > 100 µM | GI50 ([10]; read-out: pGI50 (converted)): 83.2 µM | CC50 [10, 14]: 100 µM | TGI ([10]; read-out: pTGI (converted)): 100 µM | GI50 ([11]; read-out: GI50): 100 µM | CC50 [11, 13]: > 100 µM | TGI ([11]; read-out: TGI): > 100 µM | GI50 ([11]; read-out: pGI50 (converted)): 100 µM | CC50 [11, 14]: 100 µM | GI50 ([12]; read-out: GI50): 44 µM | CC50 [12, 13]: > 100 µM | TGI ([12]; read-out: TGI): > 100 µM | GI50 ([12]; read-out: pGI50 (converted)): 43.7 µM | TGI ([12]; read-out: pTGI (converted)): 100 µM
